Results published in patent US8912169B2, “Beta-lactamase inhibitors” (VenatoRx Pharmaceuticals, Inc., priority 2012, dated 2014).

Columns and labels:
Type in all cases: biochemical
SHV-5 = target: T1, SHV-5 (Klebsiella pneumoniae, UniProt P0A3M1); assay: β-lactamase enzyme inhibition, SHV-5
T1 construct: made in house; host or cells: E. coli BL21(DE3)
Outline: (§1)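 Native untagged β-lactamases expressed in E. coli BL21(DE3) and purified, then pre-incubated with inhibitor 15 min at 37 °C. Hydrolysis was followed by absorbance: 100 μM nitrocefin at 486 nm for p99 AmpC and OXA-1; imipenem at 300 nm for KPC-2; cefotaxime at 260 nm for SHV-5. IC50 from initial-rate inhibition versus uninhibited controls.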

KPC-2 = target: T2, KPC-2 (Klebsiella pneumoniae, UniProt Q9F663); assay: β-lactamase enzyme inhibition, KPC-2; conditions: substrate imipenem, 300 nm; read-out: Class A KPC-2 IC50
T2 construct: made in house; host or cells: E. coli BL21(DE3)
Outline: as §1

VIM-2 = target: T3, VIM-2 (Escherichia coli, UniProt Q5U7L7); assay: β-lactamase enzyme inhibition, VIM-2; conditions: substrate Nitrocefin 100 μM, 486 nm; read-out: Class B VIM-2 IC50
T3 construct: made in house; host or cells: E. coli BL21(DE3)
Outline: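 Purified VIM-2 (Q sepharose, 50 mM Hepes pH 7.5, >90% purity) preincubated with inhibitor 15 min at 37° C, then nitrocefin added at 100 μM final. Hydrolysis followed at 486 nm for 10 min; IC50 from initial rates versus inhibitor-free control wells.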

p99 AmpC = target: T4, p99 AmpC (Enterobacter cloacae, UniProt P05364); assay: β-lactamase enzyme inhibition, p99 AmpC
T4 construct: made in house; host or cells: E. coli BL21(DE3)
Outline: as §1

OXA-1 = target: T5, OXA-1 (Escherichia coli, UniProt P13661); assay: β-lactamase enzyme inhibition, OXA-1; conditions: substrate Nitrocefin 100 μM, 486 nm; read-out: Class D OXA-1 IC50
T5 construct: made in house; host or cells: E. coli BL21(DE3)
Outline: as §1

Row | Structure (SMILES) | IC50 (SHV-5) | IC50 (KPC-2) | IC50 (VIM-2) | IC50 (p99 AmpC) | IC50 (OXA-1)
1 | N[C@H]1CC(CC(=O)N[C@H]2Cc3cccc(C(=O)O)c3OB2O)C[C@@H]1N [Example 37] | 1000 to 10000 nM | < 100 nM | 100 to 1000 nM | < 100 nM | < 100 nM
2 | O=C(C[C@H]1CC[C@H](NCc2ccccn2)CC1)N[C@H]1Cc2cccc(C(=O)O)c2OB1O [Example 32, (R)-2-hydroxy-3-(2-(trans-4-(pyridin-2-ylmethylamino)cyclohexyl)acetamido)-3,4-dihydro-2H-benzo[e][1,2]oxaborinine-8-carboxylic acid] | < 100 nM | < 100 nM | 100 to 1000 nM | < 100 nM | < 100 nM
3 | NCCNC(=O)NC1CC(CC(=O)N[C@H]2Cc3cccc(C(=O)O)c3OB2O)C1 (stereo partly drawn) [Example 58, (R)-3-(2-(3-(3-(2-aminoethyl)ureido)cyclobutyl)acetamido)-2-hydroxy-3,4-dihydro-2H-benzo[e][1,2]oxaborinine-8-carboxylic acid] | < 100 nM | < 100 nM | 100 to 1000 nM | < 100 nM | < 100 nM
4 | NCCNC(=O)NCCN(C(=O)NCCN)C1CC(CC(=O)N[C@H]2Cc3cccc(C(=O)O)c3OB2O)C1 (stereo partly drawn) [Example 57, (R)-3-(2-(3-(3-(2-aminoethyl)-1-(2-(3-(2-aminoethyl)ureido)ethyl)ureido)cyclobutyl)acetamido)-2-hydroxy-3,4-dihydro-2H-benzo[e][1,2]oxaborinine-8-carboxylic acid] | < 100 nM | < 100 nM | 100 to 1000 nM | < 100 nM | < 100 nM
5 | NCCN[C@H]1CC[C@@H](CC(=O)N[C@H]2Cc3cccc(C(=O)O)c3OB2O)CC1 [Example 46, (R)-3-(2-(cis-4-(2-aminoethylamino)cyclohexyl)acetamido)-2-hydroxy-3,4-dihydro-2H-benzo[e][1,2]oxaborinine-8-carboxylic acid] | 100 to 1000 nM | < 100 nM | 100 to 1000 nM | < 100 nM | < 100 nM
6 | O=C(O)CN[C@H]1CC[C@H](CC(=O)N[C@H]2Cc3cccc(C(=O)O)c3OB2O)CC1 [Example 28, (R)-3-(2-(trans-4-(carboxymethylamino)cyclohexyl)acetamido)-2-hydroxy-3,4-dihydro-2H-benzo[e][1,2]oxaborinine-8-carboxylic acid] | < 100 nM | < 100 nM | 1000 to 10000 nM | < 100 nM | 100 to 1000 nM
7 | NCCNC(=O)N[C@H]1CC[C@H](CC(=O)N[C@H]2Cc3cccc(C(=O)O)c3OB2O)CC1 [Example 59, (R)-3-(2-(trans-4-(3-(2-aminoethyl)ureido)cyclohexyl)acetamido)-2-hydroxy-3,4-dihydro-2H-benzo[e][1,2]oxaborinine-8-carboxylic acid] | < 100 nM | < 100 nM | 100 to 1000 nM | < 100 nM | < 100 nM
8 | O=C(C[C@H]1CC[C@H](NCc2nccs2)CC1)N[C@H]1Cc2cccc(C(=O)O)c2OB1O [Example 39] | < 100 nM | < 100 nM | 1000 to 10000 nM | < 100 nM | < 100 nM
9 | NCCNC[C@H]1CC[C@H](CC(=O)N[C@H]2Cc3cccc(C(=O)O)c3OB2O)CC1 [Example 10, (R)-3-(2-(trans-4-((2-aminoethylamino)methyl)cyclohexyl)acetamido)-2-hydroxy-3,4-dihydro-2H-benzo[e][1,2]oxaborinine-8-carboxylic acid] | < 100 nM | < 100 nM | 100 to 1000 nM | < 100 nM | 100 to 1000 nM
10 | O=C(C[C@H]1CC[C@H](NCCNCC2CC2)CC1)N[C@H]1Cc2cccc(C(=O)O)c2OB1O [Example 74, (R)-3-(2-(trans-4-(2-(cyclopropylmethylamino)ethylamino)cyclohexyl)acetamido)-2-hydroxy-3,4-dihydro-2H-benzo[e][1,2]oxaborinine-8-carboxylic acid] | < 100 nM | < 100 nM | < 100 nM | < 100 nM | < 100 nM
11 | CC(NC(=O)C1C[C@H](N)[C@@H](N)C1)C(=O)N[C@H]1Cc2cccc(C(=O)O)c2OB1O (stereo partly shown) [Example 38] | < 100 nM | 100 to 1000 nM | 100 to 1000 nM | < 100 nM | 100 to 1000 nM
12 | O=C(C[C@H]1CC[C@H](N2C=NCC2)CC1)N[C@H]1Cc2cccc(C(=O)O)c2OB1O [Example 29, (R)-3-(2-(trans-4-(4,5-dihydro-1H-imidazol-1-yl)cyclohexyl)acetamido)-2-hydroxy-3,4-dihydro-2H-benzo[e][1,2]oxaborinine-8-carboxylic acid] | < 100 nM | < 100 nM | 100 to 1000 nM | < 100 nM | < 100 nM
13 | NC1CC(CC(=O)N[C@H]2Cc3cccc(C(=O)O)c3OB2O)C1 (stereo partly drawn) [Example 56, (R)-3-(2-(3-aminocyclobutyl)acetamido)-2-hydroxy-3,4-dihydro-2H-benzo[e][1,2]oxaborinine-8-carboxylic acid] | 100 to 1000 nM | < 100 nM | 100 to 1000 nM | < 100 nM | < 100 nM
14 | NC[C@H]1CC[C@H](C(=O)N[C@H]2Cc3cccc(C(=O)O)c3OB2O)CC1 [Example 1, (R)-3-(trans-4-(aminomethyl)cyclohexanecarboxamido)-2-hydroxy-3,4-dihydro-2H-benzo[e][1,2]oxaborinine-8-carboxylic acid] | 1000 to 10000 nM | 100 to 1000 nM | 100 to 1000 nM | < 100 nM | < 100 nM
15 | N[C@H]1CC[C@H](CC(=O)N[C@H]2Cc3cccc(C(=O)O)c3OB2O)CC1 [Example 6, (R)-3-(2-(trans-4-aminocyclohexyl)acetamido)-2-hydroxy-3,4-dihydro-2H-benzo[e][1,2]oxaborinine-8-carboxylic acid] | < 100 nM | < 100 nM | 100 to 1000 nM | < 100 nM | < 100 nM
16 | N[C@H]1CC[C@H](NCC(=O)N[C@H]2Cc3cccc(C(=O)O)c3OB2O)CC1 [Example 45, 3-[2-(4-Amino-cyclohexylamino)-acetylamino]-2-hydroxy-3,4-dihydro-2H-benzo[e][1,2]oxaborinine-8-carboxylic acid] | < 100 nM | < 100 nM | 1000 to 10000 nM | < 100 nM | 100 to 1000 nM
17 | NCCCN[C@H]1CC[C@H](CC(=O)N[C@H]2Cc3cccc(C(=O)O)c3OB2O)CC1 [Example 60, (R)-3-(2-(trans-4-(3-aminopropylamino)cyclohexyl)acetamido)-2-hydroxy-3,4-dihydro-2H-benzo[e][1,2]oxaborinine-8-carboxylic acid] | < 100 nM | < 100 nM | < 100 nM | < 100 nM | < 100 nM
18 | O=C(C[C@H]1CC[C@H](NCc2cnc[nH]2)CC1)N[C@H]1Cc2cccc(C(=O)O)c2OB1O [Example 70, (R)-3-(2-(trans-4-((1H-imidazol-5-yl)methylamino)cyclohexyl)acetamido)-2-hydroxy-3,4-dihydro-2H-benzo[e][1,2]oxaborinine-8-carboxylic acid] | < 100 nM | < 100 nM | 100 to 1000 nM | < 100 nM | < 100 nM
19 | O=C(C[C@H]1CC[C@H](NCCNc2ccccn2)CC1)N[C@H]1Cc2cccc(C(=O)O)c2OB1O [Example 48, (R)-2-hydroxy-3-(2-(trans-4-(2-(pyridin-2-ylamino)ethylamino)cyclohexyl)acetamido)-3,4-dihydro-2H-benzo[e][1,2]oxaborinine-8-carboxylic acid] | < 100 nM | < 100 nM | 100 to 1000 nM | < 100 nM | < 100 nM
20 | CSCCN[C@H]1CC[C@H](CC(=O)N[C@H]2Cc3cccc(C(=O)O)c3OB2O)CC1 [Example 66, (R)-2-hydroxy-3-(2-(trans-4-(2-(methylthio)ethylamino)cyclohexyl)acetamido)-3,4-dihydro-2H-benzo[e][1,2]oxaborinine-8-carboxylic acid] | < 100 nM | < 100 nM | 1000 to 10000 nM | < 100 nM | < 100 nM
21 | N=C(N)NC[C@H]1CC[C@H](CC(=O)N[C@H]2Cc3cccc(C(=O)O)c3OB2O)CC1 [Example 4, (R)-3-(2-(trans-4-(guanidinomethyl)cyclohexyl)acetamido)-2-hydroxy-3,4-dihydro-2H-benzo[e][1,2]oxaborinine-8-carboxylic acid] | < 100 nM | < 100 nM | 100 to 1000 nM | < 100 nM | < 100 nM
22 | CN(C)CC(=O)NC[C@H]1CC[C@H](CC(=O)N[C@H]2Cc3cccc(C(=O)O)c3OB2O)CC1 [Example 5, (R)-3-(2-(trans-4-((2-(dimethylamino)acetamido)methyl)cyclohexyl)acetamido)-2-hydroxy-3,4-dihydro-2H-benzo[e][1,2]oxaborinine-8-carboxylic acid] | < 100 nM | < 100 nM | 1000 to 10000 nM | < 100 nM | < 100 nM
23 | N[C@H]1CC[C@@H](CC(=O)N[C@H]2Cc3cccc(C(=O)O)c3OB2O)CC1 [Example 7, (R)-3-(2-(cis-4-aminocyclohexyl)acetamido)-2-hydroxy-3,4-dihydro-2H-benzo[e][1,2]oxaborinine-8-carboxylic acid] | < 100 nM | < 100 nM | 1000 to 10000 nM | < 100 nM | 100 to 1000 nM
